Test results reported in US11419840B2, “Compositions and methods comprising C16:1N7-palmitoleate” (Tersus Life Sciences, LLC, priority 2011, dated 2022).

Tests used:
Apo E knockout mice [1] = assay: Quantification of aortic sinus lesions (oil red O staining of aortic root); type: in vivo, mouse; details: rosuvastatin 20 mg/kg/day; its own control 0.36 ± 0.10
Excerpt: Thirty-four male Apo E knockout mice were obtained from Jackson Laboratories (Bar Harbor, Me.). The mice were fed with normal mouse chow until 2 months of age and randomly allocated into two groups (n=17 each). One group of mice was then fed a control Western high-fat diet (F5722, fat 20%, cholesterol 2.1 gm/kg). […] CCO-Oil has approximately 20 wt % C16:1n7-palmitoleate. The consistency of the food was a paste; it appeared to be enticing to the mice and well tolerated. Water was freely available throughout the course of the study. Blood samples were obtained 8 and 12 weeks after initiation of the diet. At 12 weeks, all mice were sacrificed by intraperitoneal injection of ketamine/xylazine. […] Data were presented as mean±SD. Statistical analysis was performed with t-test. P<0.05 indicates statistical significance.
The surface area of aorta occupied by atherosclerotic lesions was quantified by en face oil red 0 staining, using an approach modified from Palinski et al. After mice were killed, a catheter was inserted into the left ventricle and the arterial tree was perfused with PBS (25 ml), followed by 4% buffered formaldehyde (20 ml, PH 7.4) at a pressure of 100 mm Hg. Under a microscope (Leica M500) the entire aorta attached to the heart was dissected and the adventitial fat was dissected. […]

Apo E knockout mice [2] = assay: Quantification of aorta lesions (en face Sudan IV staining); type: in vivo, mouse; details: rosuvastatin 20 mg/kg/day; its own control 21.9 ± 2.9, P<0.05
Excerpt: Thirty-four male Apo E knockout mice were obtained from Jackson Laboratories (Bar Harbor, Me.). The mice were fed with normal mouse chow until 2 months of age and randomly allocated into two groups (n=17 each). One group of mice was then fed a control Western high-fat diet (F5722, fat 20%, cholesterol 2.1 gm/kg). The other group was fed a composition comprising C16:1n7-palmitoleate (CCO-Oil 20 wt %, cholesterol 2.1 gm/kg). […] Water was freely available throughout the course of the study. Blood samples were obtained 8 and 12 weeks after initiation of the diet. At 12 weeks, all mice were sacrificed by intraperitoneal injection of ketamine/xylazine. […] Data were presented as mean±SD. Statistical analysis was performed with t-test. P<0.05 indicates statistical significance.
The surface area of aorta occupied by atherosclerotic lesions was quantified by en face oil red 0 staining, using an approach modified from Palinski et al. After mice were killed, a catheter was inserted into the left ventricle and the arterial tree was perfused with PBS (25 ml), followed by 4% buffered formaldehyde (20 ml, PH 7.4) at a pressure of 100 mm Hg. Under a microscope (Leica M500) the entire aorta attached to the heart was dissected and the adventitial fat was dissected. The ascending aorta was transected, and the heart was placed in histo-choice for assessment of aortic root atherosclerosis. […]

CC(C)c1nc(N(C)S(C)(=O)=O)nc(-c2ccc(F)cc2)c1/C=C/[C@@H](O)C[C@@H](O)CC(=O)O [Rosuvastatin]
Aortic sinus lesion size (Apo E knockout mice [1]): 0.35 ± 0.10 mm^2
Aortic lesion (% of surface area) (Apo E knockout mice [2]): 11.9 ± 1.9 %
